US8765742B2, “Crystalline methylthioninium chloride hydrates” (Wista Laboratories Ltd., priority 2009, dated 2014)

Assay: Thermodynamic stability of the crystalline hydrate form at room temperature as a function of relative humidity
Type: physicochemical
Conditions: over the whole range of relative humidity

## CN(C)c1ccc2nc3ccc(=[N+](C)C)cc-3sc2c1 [Form B, methylthioninium chloride dihydrate]
  thermodynamic stability at room temperature: thermodynamically metastable
